In US20070135383A1, “Phospholipase inhibitors, including multi-valent phospholipase inhibitors, and use thereof, including as lumen-localized phospholipase inhibitors” (priority 2005, published 2007):

Assays:
Stability at low pH = format: physicochemical
[1] = In-vitro Caco-2 permeability study (Example 1B-2); details: human
[2] = Pharmacokinetic study of ILY-4001, IV and oral (Example 1B-3); format: in vivo, mice; details: 30 mg/kg oral
Experimental: This example evaluated the bioavailability of ILY-4001 [2-(3-(2-amino-2-oxoacetyl)-1-(biphenyl-2-ylmethyl)-2-methyl-1H-indol-4-yloxy)acetic acid], alternatively referred to herein as methyl indoxam. Specifically, a pharmokinetic study was conducted to determine the fraction of unchanged ILY-4001 in systemic circulation following administration.
Bioavailability was calculated as a ratio of AUC-oral/AUC-intravenous (IV). To determine this ratio, a first set of subject animals were given a measured intravenous (IV) dose of ILY-4001, followed by a determination of ILY-4001 levels in the blood at various time points after administration (e.g., 5 minutes through 24 hours). Another second set of animals was similarly dosed using oral administration, with blood levels of ILY-4001 determined at various time points after administration (e.g., 30 minutes through 24 hours). The level of ILY-4001 in systemic circulation were determined by generally accepted methods (for example as described in Evans, G., A Handbook of Bioanalysis and Drug Metabolism. Boca Raton, CRC Press (2004)). Specifically, […]/mass spectrometry/mass spectrometry (LC/MS/MS) analytical methods were used to quantitate plasma concentrations of ILY-4001 after oral and intravenous administration. Pharmacokinetic parameters that were measured include Cmax, AUC, tmax, t1/2, and F (bioavailability). […]

mouse PLA2 IB enzyme = mouse PLA2 IB enzyme (Mus musculus, UniProt Q9Z0Y2); details: versus the mouse PLA2 IB enzyme; cited from earlier work
mouse PLA2 IB enzyme, sequence (Q9Z0Y2 23-146): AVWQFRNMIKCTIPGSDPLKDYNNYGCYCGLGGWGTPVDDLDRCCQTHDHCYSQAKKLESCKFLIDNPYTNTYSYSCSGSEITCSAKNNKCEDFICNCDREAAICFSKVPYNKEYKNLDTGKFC

[3] = tested on: wild-type C57BL/6 mice on high fat/high sucrose diet; assay: In-vivo evaluation on high fat/high sucrose diabetogenic diet, 10 weeks (Example 10); parameters: species or system mouse; details: for fasting glucose levels: low dose 25 mg/kg/day
Experimental: ILY-4001 (FIG. 7) was evaluated as a PLA2 IB inhibitor in a set of experiments using wild-type mice and genetically deficient PLA2 (−/−) mice (also referred to herein as PLA2 knock-out (KO) mice). In these experiments, wild-type and PLA2 (−/−) mice were maintained on a high fat/high sucrose diet, details of which are described below.
Briefly, four groups were set up, each having six mice. Three of the groups included six wild-type PLA2 (+/+) mice in each group (eighteen mice total), and one of the groups included six genetically deficient PLA2 (−/−) mice. One of the wild-type groups was used as a wild-type control group, and was not treated with ILY-4001. The other two wild-type groups were treated with ILY-4001—one group at a lower dose (indicated as “L” in Table 1) of 25 mg/kg/day, and the other at a higher dose (indicated as “H” in Table 1) of 90 mg/kg/day. The group comprising the PLA2 (−/−) mice was used as a positive control group.
The experimental protocol used in this study was as follows. The four groups of mice, including wild type and isogenic PLA2 (−/−) C57BL/J mice were acclimated for three days on a low fat/low carbohydrate diet. After the three day acclimation phase, the animals were fasted overnight and serum samples taken to establish baseline plasma cholesterol, triglyceride, and glucose levels, along with baseline body weight. The mice in each of the treatment groups were then fed a high fat/high sucrose diabetogenic diet (Research Diets D12331). 1000 g of the high fat/high sucrose D12331 diet was composed of casein (228 g), DL-methionine (2 g), maltodextrin 10 (170 g), sucrose (175 g), soybean oil (25 g), hydrogenated coconut oil (333.5 g), mineral mix S10001 (40 g), sodium bicarbonate (10.5 g), potassium citrate (4 g), vitamin mix V10001 (10 g), and choline bitartrate (2 g). This diet was supplemented with ILY-4001 treatments such that the average daily dose of the compound ingested by a 25 g mouse was: 0 mg/kg/day (wild-type control group and PLA2 (−/−) control group); 25 mg/kg/day (low-dose wild-type treatment group), or 90 mg/kg/day (high-dose wild-type treatment group). The animals were maintained on the high fat/high sucrose diet, with the designated ILY-4001 supplementation, for a period of ten weeks.
Body weight measurements were taken for all animals in all treatment and control groups at the beginning of the treatment period and at 4 weeks and 10 weeks after initiation of the study. (See Example 10A). Blood draws were also taken at the beginning of the treatment period (baseline) and at 4 weeks and 10 weeks after initiation of the study, in order to determine fasting glucose (See Example 10B). Cholesterol and triglyceride levels were determined from blood draws taken at the beginning of the treatment (baseline) and at ten weeks. (See […]).

[4] = low and high doses (25 and 90 mg/kg/day), 10 weeks

Cc1c(C(=O)C(N)=O)c2c(OCC(=O)O)cccc2n1Cc1ccccc1-c1ccccc1 [ILY-4001, 2-(3-(2-amino-2-oxoacetyl)-1-(biphenyl-2-ylmethyl)-2-methyl-1H-indol-4-yloxy)acetic acid]
stability at low pH (Stability at low pH): stable
Papp A→B at 6 hr, 50 ug/ml [1]: ~0.166 ×10⁻⁶ cm/s
level of non-absorption from the GI tract into systemic circulation [2]: ~72%
IC50 (mouse PLA2 IB enzyme): 150 nM
body weight gain ([3]; 25 mg/kg/d and 90 mg/kg/d in diet, week 4 and week 10, vs wild-type control): significantly reduced body weight gains
plasma levels of cholesterol [3, 4]: substantially reduced
plasma levels of triglycerides [3, 4]: substantially reduced
fasting glucose levels ([3]; week four): moderately beneficial effect
fasting glucose levels ([3]; week ten): beneficial effect was not observed
